Results as given in patent US11040981B2, “Pyrrolotriazine compounds and methods of inhibiting TAM kinases” (Syros Pharmaceuticals, Inc., priority 2017, dated 2021).

Columns and labels:
MERTK = biological target: T1, MERTK (Homo sapiens, UniProt Q12866); assay: TR-FRET kinase activity assay, MERTK; type: biochemical; details: for IC50: TR-FRET activity assay, ATP at Km, 60 minutes, read-out: Mer IC50; for FLT3/Mer ratio (FLT3 IC50/Mer IC50): ratio calculated as FLT3 IC50/Mer IC50
T1 sequence (Q12866 21-999): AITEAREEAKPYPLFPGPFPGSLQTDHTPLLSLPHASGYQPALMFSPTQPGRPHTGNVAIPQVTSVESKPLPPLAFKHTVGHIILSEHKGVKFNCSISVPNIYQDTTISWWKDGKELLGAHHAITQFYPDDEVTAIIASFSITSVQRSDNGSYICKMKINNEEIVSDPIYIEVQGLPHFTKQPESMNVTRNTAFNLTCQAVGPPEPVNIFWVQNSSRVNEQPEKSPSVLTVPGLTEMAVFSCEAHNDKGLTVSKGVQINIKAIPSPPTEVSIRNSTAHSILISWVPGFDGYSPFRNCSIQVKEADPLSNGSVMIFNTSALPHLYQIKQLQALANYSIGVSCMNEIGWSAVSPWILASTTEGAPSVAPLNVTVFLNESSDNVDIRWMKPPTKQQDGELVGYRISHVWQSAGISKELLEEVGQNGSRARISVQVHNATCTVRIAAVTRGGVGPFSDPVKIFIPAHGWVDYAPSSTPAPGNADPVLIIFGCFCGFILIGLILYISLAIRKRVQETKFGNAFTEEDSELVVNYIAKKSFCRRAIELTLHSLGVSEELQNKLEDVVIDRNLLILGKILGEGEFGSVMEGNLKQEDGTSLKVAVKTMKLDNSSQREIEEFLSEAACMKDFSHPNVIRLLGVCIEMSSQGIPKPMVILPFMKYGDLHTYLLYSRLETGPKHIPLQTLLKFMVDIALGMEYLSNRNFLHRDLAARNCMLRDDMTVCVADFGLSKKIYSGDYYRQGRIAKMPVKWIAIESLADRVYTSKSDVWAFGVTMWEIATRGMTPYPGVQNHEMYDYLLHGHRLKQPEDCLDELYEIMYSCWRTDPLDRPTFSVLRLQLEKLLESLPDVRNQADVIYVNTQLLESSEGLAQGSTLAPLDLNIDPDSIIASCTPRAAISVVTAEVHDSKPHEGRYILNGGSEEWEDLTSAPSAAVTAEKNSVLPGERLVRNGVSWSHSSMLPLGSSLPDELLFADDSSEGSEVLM
In short: (§1)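 Compounds were tested against each kinase with ATP set at its own Km and a labelled tyrosine peptide substrate. Following one hour at room temperature in buffer containing 10 mM MgCl2 and 1 mM DTT, phosphorylated product was detected by Europium antibody TR-FRET after EDTA quench, and IC50 values were calculated.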

TYRO3 = biological target: T2, TYRO3 (Homo sapiens, UniProt Q06418); assay: TR-FRET kinase activity assay, TYRO3; type: biochemical; details: ATP at Km, 60 minutes
T2 sequence (Q06418 41-890): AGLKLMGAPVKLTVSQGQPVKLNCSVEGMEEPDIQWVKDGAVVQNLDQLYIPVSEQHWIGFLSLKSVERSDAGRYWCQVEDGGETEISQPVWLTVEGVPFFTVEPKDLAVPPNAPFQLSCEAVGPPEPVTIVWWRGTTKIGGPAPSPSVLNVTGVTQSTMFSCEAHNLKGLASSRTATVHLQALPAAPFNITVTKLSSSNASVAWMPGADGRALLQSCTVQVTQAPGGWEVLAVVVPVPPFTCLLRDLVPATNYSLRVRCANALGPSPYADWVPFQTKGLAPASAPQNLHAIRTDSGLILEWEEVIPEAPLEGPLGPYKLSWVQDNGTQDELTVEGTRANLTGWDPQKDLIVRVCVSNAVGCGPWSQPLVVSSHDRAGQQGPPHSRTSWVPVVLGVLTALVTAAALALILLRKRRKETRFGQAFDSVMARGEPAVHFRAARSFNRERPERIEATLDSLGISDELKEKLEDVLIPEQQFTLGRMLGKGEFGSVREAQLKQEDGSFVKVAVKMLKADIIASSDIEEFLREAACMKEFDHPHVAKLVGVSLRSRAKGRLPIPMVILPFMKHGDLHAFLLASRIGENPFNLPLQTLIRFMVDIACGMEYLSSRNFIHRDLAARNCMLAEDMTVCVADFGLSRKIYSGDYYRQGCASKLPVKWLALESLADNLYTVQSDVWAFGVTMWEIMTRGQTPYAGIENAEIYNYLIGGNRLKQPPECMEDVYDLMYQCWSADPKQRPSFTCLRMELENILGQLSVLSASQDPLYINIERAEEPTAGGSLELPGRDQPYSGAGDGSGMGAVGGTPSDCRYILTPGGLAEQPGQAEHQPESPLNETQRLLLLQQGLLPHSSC
In short: as §1

IC50 (MERTK) [nM] | FLT3/Mer ratio (FLT3 IC50/Mer IC50) (MERTK) | IC50 (TYRO3) [nM] | Compound
≤ 100 | +++ (“+++” represents a ratio of >100) | ≤ 100 | COC[C@H](C)Nc1ncc2c(-c3cnn(C(C)(C)C(=O)N4CC(C)(O)C4)c3)cc([C@H]3CC[C@H](O)CC3)n2n1 [Compound 622]
≤ 100 | +++ (“+++” represents a ratio of >100) | ≤ 100 | COC[C@H](C)Nc1ncc2c(-c3cnn(C(C)(C)c4nc(C)co4)c3)cc([C@H]3CC[C@H](O)CC3)n2n1 [Compound 623]
≤ 100 | +++ (“+++” represents a ratio of >100) | ≤ 100 | COC[C@H](C)Nc1ncc2c(-c3cnn(C(C)(C)c4nnc(C)s4)c3)cc([C@H]3CC[C@H](O)CC3)n2n1 [Compound 625]
≤ 100 | +++ (“+++” represents a ratio of >100) | ≤ 100 | COC[C@H](C)Nc1ncc2c(-c3ccnc(S(C)(=O)=O)c3)cc(C3CCC(O)CC3)n2n1 (stereo partly drawn) [Compound 627]
≤ 100 | +++ (“+++” represents a ratio of >100) | ≤ 100 | COC[C@H](C)Nc1ncc2c(-c3cnn(C(C)(C)c4ncc(C)o4)c3)cc(C3CCC(O)CC3)n2n1 (stereo partly drawn) [Compound 628]
≤ 100 | +++ (“+++” represents a ratio of >100) | ≤ 100 | [2H]C([2H])([2H])OCC(C)Nc1ncc2c(-c3ccnc(N4CCOCC4)c3)cc(C3CCC(O)CC3)n2n1 (stereo not drawn) [Compound 629]
≤ 100 | +++ (“+++” represents a ratio of >100) | ≤ 100 | [2H]C([2H])([2H])OCC(C)Nc1ncc2c(-c3cnn(C4COC4)c3)cc(C3CCC(O)CC3)n2n1 (stereo not drawn) [Compound 630]
≤ 100 | +++ (“+++” represents a ratio of >100) | ≤ 100 | COC[C@H](C)Nc1ncc2c(-c3cnn(C(C)(C)c4nnc(N5CCOCC5)o4)c3)cc(C3CCC(O)CC3)n2n1 (stereo partly drawn) [Compound 631]
≤ 100 | +++ (“+++” represents a ratio of >100) | ≤ 100 | COC[C@H](C)Nc1ncc2c(-c3ccnc(N4CC(C)(O)C4)c3)cc(C3CCC(O)CC3)n2n1 (stereo partly drawn) [Compound 632]
≤ 100 | +++ (“+++” represents a ratio of >100) | ≤ 100 | COC[C@H](C)Nc1ncc2c(-c3ccnc(N4CCC(C)(O)C4)c3)cc(C3CCC(O)CC3)n2n1 (stereo partly drawn) [Compound 633]

Compound | IC50 (MERTK) [nM] | FLT3/Mer ratio (FLT3 IC50/Mer IC50) (MERTK) | IC50 (TYRO3) [nM]
COC[C@H](C)Nc1ncc2c(-c3cnn(C4COC4)c3)cc([C@H]3CCc4[nH]ncc4C3)n2n1 [Compound 624] | ≤ 100 | ++ (“++” represents a ratio of between 10 and 100) | ≤ 100
C[C@@H](CC(F)(F)F)Nc1ncc2c(-c3cnn(C(C)(C)C(=O)N4CCN(C)CC4)c3)cc(C3CCC(O)CC3)n2n1 (stereo partly drawn) [Compound 626] | ≤ 100 | ++ (“++” represents a ratio of between 10 and 100) | ≤ 100
